Marks after values point to notes of the source that are not given here.
Legend:
[1] = tested on: chronic dermatitis models; details: J. Pharmacol. Exp. Ther., 1998, 287, p. 705; cited from earlier work
[2] = tested on: delayed-type allergic reaction in the skin; details: animal model; Eur. J. Pharmacol., 2002, 446: 195; cited from earlier work
[3] = tested on: oxazolone-induced ear swelling; assay: Inhibitory effects on oxazolone-induced ear swelling in mice; assay type: in vivo, BALB/c mice; details: dose 100 μg/site, epicutaneous
Experimental: Six-week-old BALB/c mice (male, Charles River Japan, Inc.) were used for the experiment. […] The mice were placed in plastic cages (6 mice per cage) in a breeding room which was kept at a room temperature (19 to 25° C.) and a humidity of 30 to 70% and was illuminated for 12 hours a day (from 7:00 a.m. to 7:00 p.m.). The mice were allowed to freely access commercially available pellets and water. As an antigen solution, Oxazolone (Sigma-Aldrich) was dissolved in acetone (Kanto Kagaku) to prepare 0.5 weight/volume % of oxazolone-acetone solution. Compound (I) was dissolved in the antigen solution at 5 weight/volume % to prepare a Compound (I)-dissolving antigen solution. BALB/c mice were each applied with 100 μL of the antigen solution to the shaved abdomen for sensitization. Mice were shaved on abdomen on the previous day of the sensitization. […] Ear thickness was measured with a dial thickness gauge (Ozaki Seisakusho) just before and 24 hours after the application for inducing .the reaction, and the difference in the thickness was used as an indication of ear swelling. The inhibition ratio (%) against ear swelling was calculated using the following: Inhibition ratio (%)=[{(value in solvent administration group)−(value in Compound (I) administration group)}/{(value in solvent administration group)−(value in non-administration group)}]×100

[4] = tested on: dermatitis induced by repeated application of oxazolone; assay: Inhibitory effects on the increase of ear thickness in a mouse model of dermatitis induced by repeated application of oxazolone; assay type: in vivo, BALB/c mice; details: 28th day, dose 50 μg/site/time
Experimental: Six-week-old BALB/c mice (male, Charles River Japan, Inc.) were used for the experiment. […] The mice were placed in plastic cages (6 mice per cage) in a breeding room which was kept at a room temperature (19 to 25° C.) and a humidity of 30 to 70% and was illuminated for 12 hours a day (from 7:00 a.m. to 7:00 p.m.). The mice were allowed to freely access commercially available pellets and water.
The experiment was performed according to a method by Kitagaki et al. (J. Invest. Dermatol., […], 105: 749) with small modification.
As an antigen solution, Oxazolone (Sigma-Aldrich) was dissolved in acetone (Kanto Kagaku) to prepare 0.5 weight/volume % of oxazolone-acetone solution. Compound (I) was dissolved in the antigen solution at 5 weight/volume % to prepare a Compound (I)-dissolving antigen solution. BALB/c mice were each applied with 10 μL of the antigen solution to the ear for sensitization. […] On the 28th day when chronic dermatitis symptoms were observed, ear thickness was measured with a dial thickness gauge (Ozaki Seisakusho). The inhibition ratio (%) against the increase of ear thickness was calculated using the following: Inhibition ratio (%)=[{(value in solvent administration group)−(value in Compound (I) administration group)}/{(value in solvent administration group)−(value in non-administration group)}]×100

| SMILES | Therapeutic effects on chronic dermatitis models [1] | Effect on delayed-type allergic reaction in the skin [2] | Auricular Edema ([3]; difference in ear thickness just before and 24 hours after induction, male BALB/c mice) | Inhibition Ratio against ear swelling ([3]; 24 hours after induction, relative to solvent and non-administration groups) [%] | Auricle thickness ([4]; repeated application to the ear day 7 to 28, male BALB/c mice) | Inhibition Ratio against the increase of ear thickness ([4]; repeated application, relative to solvent and non-administration groups) [%] |
| --- | --- | --- | --- | --- | --- | --- |
| COc1ccc([C@]2(C#N)CC[C@@H](C(=O)O)CC2)cc1OC1CCCC1 [SB207499] | exhibit therapeutic effects on chronic dermatitis models | inhibit a delayed-type allergic reaction in the skin | – | – | – | – |
| COc1ccc(C(=O)Cc2c(Cl)cncc2Cl)c2c1OC1(CCCC1)O2 [Compound (I), 7-[2-(3,5-dichloro-4-pyridyl)-1-oxoethyl]-4-methoxy-spiro[1,3-benzodioxol-2,1′-cyclopentane]] | – | – | 16** ×0.01 mm | 64 | 67** ×0.01 mm | 41 |

Reference: patent publication US20060173028A1, “Therapeutic and/or preventive agent for chronic skin disease” (Kyowa Hakko Kogyo Co., Ltd., priority 2003, published 2006)
